Data taken from patent publication US20230092890A1, “1, 3, 4-Oxadiazole derivative compounds as histone deacetylase 6 inhibitor, and the pharmaceutical composition comprising the same” (Chong Kun Dang Pharmaceutical Corp., priority 2019, published 2023).

Tests used:
HDAC1 = target: T1, HDAC1 (Homo sapiens, UniProt Q13547); experiment: HDAC enzyme activity inhibition (in vitro), HDAC1 Fluorimetric Drug Discovery Assay Kit; assay type: biochemical; settings: samples at 100, 1000 and 10000 nM; 37° C. 60 minutes; fluorescence Ex 390, Em 460; read-out: HDAC1 IC50
T1 construct: purchased Enzolifesciences BML-AK511
In short: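 Compound incubated with enzyme 60 min at 37° C, then developer 30 min at 37° C; fluorescence read at Ex 390/Em 460. HDAC1 via fluorimetric kit, compounds at 100, 1000 and 10000 nM; HDAC6 human recombinant, compounds at 0.1, 1, 10, 100 and 1000 nM.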

HDAC6 human recombinant = target: T2, HDAC6 human recombinant (Homo sapiens, UniProt Q9UBN7); experiment: HDAC enzyme activity inhibition (in vitro), HDAC6 assay; assay type: biochemical; settings: samples at 0.1, 1, 10, 100 and 1000 nM; 37° C. 60 minutes; fluorescence Ex 390, Em 460; read-out: HDAC6 IC50
T2 construct: purchased Calbiochem 382180
T2 sequence (Q9UBN7 1-1215): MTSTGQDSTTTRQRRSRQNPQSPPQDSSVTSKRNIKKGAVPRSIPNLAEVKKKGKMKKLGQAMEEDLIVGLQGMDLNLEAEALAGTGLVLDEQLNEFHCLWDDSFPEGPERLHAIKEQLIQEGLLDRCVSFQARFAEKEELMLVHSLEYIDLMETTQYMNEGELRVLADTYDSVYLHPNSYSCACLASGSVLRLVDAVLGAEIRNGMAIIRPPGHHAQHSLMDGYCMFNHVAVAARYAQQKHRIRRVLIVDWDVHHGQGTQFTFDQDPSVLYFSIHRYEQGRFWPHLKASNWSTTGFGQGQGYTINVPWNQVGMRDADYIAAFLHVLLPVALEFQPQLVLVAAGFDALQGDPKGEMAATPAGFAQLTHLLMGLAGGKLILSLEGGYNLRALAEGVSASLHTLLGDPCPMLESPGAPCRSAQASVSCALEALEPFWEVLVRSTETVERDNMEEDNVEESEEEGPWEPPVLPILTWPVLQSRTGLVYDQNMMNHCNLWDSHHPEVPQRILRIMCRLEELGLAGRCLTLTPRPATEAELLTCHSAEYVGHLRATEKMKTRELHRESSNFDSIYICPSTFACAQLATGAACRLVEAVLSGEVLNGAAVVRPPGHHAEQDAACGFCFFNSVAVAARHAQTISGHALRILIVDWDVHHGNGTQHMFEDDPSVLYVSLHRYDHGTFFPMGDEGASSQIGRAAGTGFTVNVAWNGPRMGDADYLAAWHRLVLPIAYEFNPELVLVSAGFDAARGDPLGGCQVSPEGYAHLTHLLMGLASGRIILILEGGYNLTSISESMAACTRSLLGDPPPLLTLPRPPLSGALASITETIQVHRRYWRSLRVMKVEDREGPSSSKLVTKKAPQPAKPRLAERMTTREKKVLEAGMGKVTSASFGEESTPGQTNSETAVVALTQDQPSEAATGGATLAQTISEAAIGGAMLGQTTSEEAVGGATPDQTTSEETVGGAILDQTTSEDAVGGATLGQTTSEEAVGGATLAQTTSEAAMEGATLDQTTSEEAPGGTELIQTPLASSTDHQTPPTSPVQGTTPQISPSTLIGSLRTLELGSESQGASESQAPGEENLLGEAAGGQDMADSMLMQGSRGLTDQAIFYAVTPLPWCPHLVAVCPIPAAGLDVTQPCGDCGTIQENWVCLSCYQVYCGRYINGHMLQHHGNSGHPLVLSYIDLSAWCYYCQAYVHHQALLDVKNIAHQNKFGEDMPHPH
In short: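 HDAC6 human recombinant enzyme with fluorimetric substrate; […]. Reaction 60 min at 37° C, then developer 30 min at 37° C; fluorescence read at Ex 390/Em 460.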

T1 sequence (Q13547 whole entry): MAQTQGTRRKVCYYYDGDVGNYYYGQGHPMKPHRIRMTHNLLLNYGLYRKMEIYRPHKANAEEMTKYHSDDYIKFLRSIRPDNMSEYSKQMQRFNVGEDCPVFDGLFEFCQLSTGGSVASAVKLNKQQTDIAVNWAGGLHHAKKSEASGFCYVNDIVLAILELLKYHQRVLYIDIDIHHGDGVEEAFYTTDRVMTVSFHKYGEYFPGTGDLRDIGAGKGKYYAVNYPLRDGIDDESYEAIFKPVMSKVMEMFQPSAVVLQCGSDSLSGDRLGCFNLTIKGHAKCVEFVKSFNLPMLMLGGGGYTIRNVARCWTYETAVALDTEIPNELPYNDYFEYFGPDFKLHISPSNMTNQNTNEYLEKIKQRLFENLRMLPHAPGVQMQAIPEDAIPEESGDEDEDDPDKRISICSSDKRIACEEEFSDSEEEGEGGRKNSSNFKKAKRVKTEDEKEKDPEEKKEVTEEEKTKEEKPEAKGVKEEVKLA

IC50 (HDAC1)	IC50 (HDAC6 human recombinant)	Compound
> 10000 nM	80 nM	O=c1n(Cc2ccc(-c3nnc(C(F)F)o3)cc2F)c2cc(F)ccc2n1C1CCN(C2CCSCC2)CC1 [Compound 73, 3-(4-(5-(difluoromethyl)-1,3,4-oxadiazole-2-yl)-2-fluorobenzyl)-5-fluoro-1-(1-(tetrahydro-2H-thiopyran-4-yl)piperidine-4-yl)-1,3-dihydro-2H-benzo[d]imidazole-2-one]
> 10000 nM	44 nM	O=c1oc2cc(C3CCN(C4COC4)CC3)c(F)cc2n1Cc1ccc(-c2nnc(C(F)F)o2)cn1 [Compound 336, 3-((5-(5-(difluoromethyl)-1,3,4-oxadiazole-2-yl)pyridine-2-yl)methyl)-5-fluoro-6-(1-(oxetan-3-yl)piperidine-4-yl)benzo[d]oxazole-2(3H)-one]
> 10000 nM	50 nM	CS(=O)(=O)N1CCC(n2c(=O)n(Cc3ccc(-c4nnc(C(F)F)o4)cn3)c3cc(C(F)(F)F)ccc32)CC1 [Compound 195, 3-((5-(5-(difluoromethyl)-1,3,4-oxadiazole-2-yl)pyridine-2-yl)methyl)-1-(1-(methylsulfonyl)piperidine-4-yl)-5-(trifluoromethyl)-1,3-dihydro-2H-benzo[d]imidazole-2-one]
> 10000 nM	14 nM	CN1CC(n2c(=O)n(Cc3ccc(-c4nnc(C(F)F)o4)cn3)c3cc(F)c(-c4ccncc4)cc32)C1 [Compound 259, 1-((5-(5-(difluoromethyl)-1,3,4-oxadiazole-2-yl)pyridine-2-yl)methyl)-6-fluoro-3-(1-methylazetidine-3-yl)-5-(pyridine-4-yl)-1,3-dihydro-2H-benzo[d]imidazole-2-one]
> 10000 nM	57 nM	CC(C)N1CCN(c2cc3c(cc2F)n(Cc2ccc(-c4nnc(C(F)F)o4)cn2)c(=O)n3C)CC1 [Compound 261, 1-((5-(5-(difluoromethyl)-1,3,4-oxadiazole-2-yl)pyridine-2-yl)methyl)-6-fluoro-5-(4-isopropylpiperazine-1-yl)-3-methyl-1,3-dihydro-2H-benzo[d]imidazole-2-one]
> 10000 nM	72 nM	Cc1ccc(C(=O)N2CCC(n3c(=O)n(Cc4ccc(-c5nnc(C(F)F)o5)cn4)c4cc(F)ccc43)CC2)o1 [Compound 66, 3-((5-(5-(difluoromethyl)-1,3,4-oxadiazole-2-yl)pyridine-2-yl)methyl)-5-fluoro-1-(1-(5-methylfuran-2-carbonyl)piperidine-4-yl)-1,3-dihydro-2H-benzo[d]imidazole-2-one]
> 10000 nM	105 nM	CS(=O)(=O)N1CCC(n2c(=O)n(Cc3ccc(-c4nnc(C(F)F)o4)cn3)c3ncccc32)CC1 [Compound 203, 3-((5-(5-(difluoromethyl)-1,3,4-oxadiazole-2-yl)pyridine-2-yl)methyl)-1-(1-(methylsulfonyl)piperidine-4-yl)-1,3-dihydro-2H-imidazo[4,5-b]pyridine-2-one]
> 10000 nM	39 nM	CCN1CCC(n2c(=O)n(Cc3ccc(-c4nnc(C(F)F)o4)cn3)c3cc(F)ccc32)CC1 [Compound 50, 3-((5-(5-(difluoromethyl)-1,3,4-oxadiazole-2-yl)pyridine-2-yl)methyl)-1-(1-ethylpiperidine-4-yl)-5-fluoro-1,3-dihydro-2H-benzo[d]imidazole-2-one]
> 10000 nM	42 nM	O=c1sc2cc(-c3cnn(C4CCN(CC5(F)CC5)CC4)c3)ccc2n1Cc1ccc(-c2nnc(C(F)F)o2)cn1 [Compound 357, 3-((5-(5-(difluoromethyl)-1,3,4-oxadiazole-2-yl)pyridine-2-yl)methyl)-6-(1-(1-((1-fluorocyclopropyl)methyl)piperidine-4-yl)-1H-pyrazole-4-yl)benzo[d]thiazole-2(3H)-one]
> 10000 nM	3150 nM	CN1CCC(n2c(=O)n(Cc3ccc(-c4nnc(C(F)F)o4)cc3F)c3cc(-c4cc(F)ccc4F)ccc32)CC1 [Compound 121, 3-(4-(5-(difluoromethyl)-1,3,4-oxadiazole-2-yl)-2-fluorobenzyl)-5-(2,5-difluorophenyl)-1-(1-methylpiperidine-4-yl)-1,3-dihydro-2H-benzo[d]imidazole-2-one]
> 10000 nM	6 nM	CN1CCC(n2c(=O)n(Cc3ccc(-c4nnc(C(F)F)o4)cn3)c3cc(F)c(-c4cccc5[nH]ccc45)cc32)CC1 [Compound 217, 1-((5-(5-(difluoromethyl)-1,3,4-oxadiazole-2-yl)pyridine-2-yl)methyl)-6-fluoro-5-(1H-indole-4-yl)-3-(1-methylpiperidine-4-yl)-1,3-dihydro-2H-benzo[d]imidazole-2-one]
> 10000 nM	18 nM	CCN1CCC(n2c(=O)n(Cc3ccc(-c4nnc(C(F)F)o4)cn3)c3ccc(-c4cccnc4)cc32)CC1 [Compound 281, 1-((5-(5-(difluoromethyl)-1,3,4-oxadiazole-2-yl)pyridine-2-yl)methyl)-3-(1-ethylpiperidine-4-yl)-5-(pyridine-3-yl)-1,3-dihydro-2H-benzo[d]imidazole-2-one]
> 10000 nM	55 nM	CN1CCC(n2c(=O)n(Cc3ccc(-c4nnc(C(F)F)o4)cn3)c3cc(F)c(-c4ccco4)cc32)CC1 [Compound 151, 1-((5-(5-(difluoromethyl)-1,3,4-oxadiazole-2-yl)pyridine-2-yl)methyl)-6-fluoro-5-(furan-2-yl)-3-(1-methylpiperidine-4-yl)-1,3-dihydro-2H-benzo[d]imidazole-2-one]
> 10000 nM	42 nM	O=c1n(Cc2ccc(-c3nnc(C(F)F)o3)cn2)c2cc(F)c(N3CCN(Cc4cccnc4)CC3)cc2n1C1COC1 [Compound 324, 1-((5-(5-(difluoromethyl)-1,3,4-oxadiazole-2-yl)pyridine-2-yl)methyl)-6-fluoro-3-(oxetan-3-yl)-5-(4-(pyridine-3-ylmethyl)piperazine-1-yl)-1,3-dihydro-2H-benzo[d]imidazole-2-one]
> 10000 nM	10 nM	O=c1n(Cc2ccc(-c3nnc(C(F)F)o3)cn2)c2cc(F)c(-c3cccnc3)cc2n1[C@H]1CCCN(C2COC2)C1 [Compound 297, (S)-1-((5-(5-(difluoromethyl)-1,3,4-oxadiazole-2-yl)pyridine-2-yl)methyl)-6-fluoro-3-(1-(oxetan-3-yl)piperidine-3-yl)-5-(pyridine-3-yl)-1,3-dihydro-2H-benzo[d]imidazole-2-one]
> 10000 nM	55 nM	CC(C)N1CCN(c2ccc(-c3cc4oc(=O)n(Cc5ccc(-c6nnc(C(F)F)o6)cn5)c4cc3F)cn2)CC1 [Compound 349, 3-((5-(5-(difluoromethyl)-1,3,4-oxadiazole-2-yl)pyridine-2-yl)methyl)-5-fluoro-6-(6-(4-isopropylpiperazine-1-yl)pyridine-3-yl)benzo[d]oxazole-2(3H)-one]
> 10000 nM	170 nM	CC(C)(C)OC(=O)N1CCC(n2cc(-c3ccc4c(c3)sc(=O)n4Cc3ccc(-c4nnc(C(F)F)o4)cn3)cn2)CC1 [Compound 352, tert-butyl 4-(4-(3-((5-(5-(difluoromethyl)-1,3,4-oxadiazole-2-yl)pyridine-2-yl)methyl)-2-oxo-2,3-dihydrobenzo[d]thiazole-6-yl)-1H-pyrazole-1-yl)piperidine-1-carboxylate]
